Like-named read-outs stand apart in the source and are kept apart here.
Assays:
HL-60 cells = assay: HL-60 differentiation (nitro blue tetrazolium reduction); type: cell-based, Human; settings: FIG. 2; for EC50: HL-60 cells, read-out: EC50, HL-60 cell differentiation
Protocol: The study drugs were dissolved in ethanol and the concentrations determined using UV spectrophotometry. Serial dilutions were prepared so that a range of drug concentrations could be tested without changing the final concentration of ethanol (≦0.2%) present in the cell cultures.
Human promyelocytic leukemia (HL60) cells were grown in RPMI-1640 medium containing 10% fetal bovine serum. The cells were incubated at 37° C. in the presence of 5% CO2.
HL60 cells were plated at 1.2×10^5 cells/ml. Eighteen hours after plating, cells in duplicate were treated with drug. Four days later, the cells were harvested and a nitro blue tetrazolium reduction assay was performed (Collins et al., 1979; J. Exp. Med. 149:969-974). The percentage of differentiated cells was determined by counting a total of 200 cells and recording the number that contained intracellular black-blue formazan deposits. Verification of differentiation to monocytic cells was determined by measuring phagocytic activity (data not shown).

[1] = system: 24-hydroxylase (24Ohase) gene promoter in ROS 17/2.8 (bone) cells; assay: In vitro transcription assay (24-hydroxylase promoter luciferase reporter); type: cell-based; settings: FIG. 3; for EC50: ROS 17/2.8 cells, 24-hydroxylase promoter-luciferase, read-out: EC50, transcriptional activity in bone cells
Protocol: In Vitro Transcription Assay
Transcription activity was measured in ROS 17/2.8 (bone) cells that were stably transfected with a 24-hydroxylase (24Ohase) gene promoter upstream of a luciferase reporter gene (Arbour et al., 1998). Cells were given a range of doses. Sixteen hours after dosing the cells were harvested and luciferase activities were measured using a luminometer.
RLU=relative luciferase units.

[2] = Bone calcium mobilization (serum calcium) in vitamin D-deficient rats; type: in vivo, Sprague-Dawley rats; settings: FIG. 4
Protocol: (§1) Intestinal Calcium Transport and Bone Calcium Mobilization
(§2) Male, weanling Sprague-Dawley rats were placed on Diet 11 (0.47% Ca) diet +AEK oil for one week followed by Diet 11 (0.02% Ca) +AEK oil for 3 weeks. The rats were then switched to a diet containing 0.47% Ca for one week followed by two weeks on a diet containing 0.02% Ca. Dose administration began during the last week on 0.02% calcium diet. Four consecutive ip doses were given approximately 24 hours apart. Twenty-four hours after the last dose, blood was collected from the severed neck and the concentration of serum calcium determined as a measure of bone calcium mobilization. The first 10 cm of the intestine was also collected for intestinal calcium transport analysis using the everted gut sac method.

[3] = Intestinal calcium transport (everted gut sac method) in vitamin D-deficient rats; type: in vivo, Sprague-Dawley rats; settings: FIG. 5; for intestinal calcium transport: everted gut sac
Protocol: as §1, §2

[4] = target: T1, full-length recombinant rat vitamin D receptor (Rattus norvegicus, UniProt P13053); assay: Vitamin D receptor binding (competition with [3H]-1,25(OH)2D3); settings: full-length recombinant rat VDR; FIG. 1
T1 construct: Full-length recombinant rat receptor was expressed in E. coli BL21 (DE3) Codon Plus RIL cells; histidine tag (C); made in house; host or cells: E. coli BL21 (DE3) Codon Plus RIL
T1 sequence (P13053 1-423): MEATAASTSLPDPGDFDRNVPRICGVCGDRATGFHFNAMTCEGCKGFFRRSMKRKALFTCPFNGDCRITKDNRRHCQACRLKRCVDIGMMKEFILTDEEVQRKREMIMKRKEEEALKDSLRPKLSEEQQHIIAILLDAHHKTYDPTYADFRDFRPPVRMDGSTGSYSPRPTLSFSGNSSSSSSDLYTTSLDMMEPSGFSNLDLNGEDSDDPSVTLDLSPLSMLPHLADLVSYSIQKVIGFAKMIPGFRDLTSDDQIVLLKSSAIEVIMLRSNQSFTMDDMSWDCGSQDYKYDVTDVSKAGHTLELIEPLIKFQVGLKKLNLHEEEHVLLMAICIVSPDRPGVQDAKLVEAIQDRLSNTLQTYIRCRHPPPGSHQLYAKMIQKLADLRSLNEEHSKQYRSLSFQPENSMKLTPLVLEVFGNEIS
Source text: Vitamin D Receptor Binding
Full-length recombinant rat receptor was expressed in E. coli BL21 (DE3) Codon Plus RIL cells and purified to homogeneity using two different column chromatography systems. The first system was a nickel affinity resin that utilizes the C-terminal histidine tag on this protein. The protein that was eluted from this resin was further purified using ion exchange chromatography (S-Sepharose Fast Flow). Aliquots of the purified protein were quick frozen in liquid nitrogen and stored at −80° C. until use. For use in binding assays, the protein was diluted in TEDK50 (50 mM Tris, 1.5 mM EDTA, pH7.4, 5 mM DTT, 150 mM KCl) with 0.1% Chaps detergent. The receptor protein and ligand concentration were optimized such that no more than 20% of the added radiolabeled ligand was bound to the receptor.
Radiolabeled and unlabeled ligands were added to 100 mcl of the diluted protein at a final ethanol concentration of ≦10%, mixed and incubated overnight on ice to reach binding equilibrium. The following day, 100 mcl of hydroxylapatite slurry (50%) was added to each tube and mixed at 10-minute intervals for 30 minutes. The hydroxylapaptite was collected by centrifugation and then washed three times with Tris-EDTA buffer (50 mM Tris, 1.5 mM EDTA, pH 7.4) containing 0.5% Titron X-100. […] Total binding was determined from the tubes containing only radiolabeled ligand.

Structure (SMILES)	EC50 (HL-60 cells) [nM]	EC50 [1] [nM]	serum calcium levels (bone calcium mobilization) ([2]; native hormone, dose not given, vitamin D-deficient rats, 0.02% Ca diet)	intestinal calcium transport ([3]; 87 pmol/day)	Ki [4] [nM]	binding to vitamin D receptor compared to standard 1,25-(OH)2D3 (in words) [4]	potency on HL-60 cell differentiation compared to 1,25(OH)2D3 (in words) (HL-60 cells)	EC50 (HL-60 cells; Homo sapiens) [nM]	transcriptional activity in bone cells compared to 1α,25-dihydroxyvitamin D3 (in words) [1]	bone calcium mobilization ([2]; 2340 pmol/day ip for 4 consecutive days, vitamin D-deficient rats, 0.02% Ca diet)	bone calcium mobilization ([2]; 35100 pmol/day, vitamin D-deficient rats, 0.02% Ca diet)	bone calcium mobilization activity compared to 1,25(OH)2D3 (in words) ([2]; overall)	intestinal calcium transport ([3]; 2340 pmol/day)	intestinal calcium transport ([3]; 35100 pmol/day)	intestinal calcium transport activity compared to 1,25(OH)2D3 (in words) ([3]; overall)
C=C1/C(=C\C=C2/CCC[C@]3(C)[C@@H]([C@H](C)CCCC(C)(C)O)CC[C@@H]23)C[C@@H](O)C[C@@H]1O [1α,25-dihydroxyvitamin D3, reference compound]	3	0.3	increased serum calcium levels	promotes a significant increase											
C=C1[C@H](O)CC(=C/C=C2\CCC[C@]3(C)[C@@H]([C@@H](C)CC(F)F)CC[C@@H]23)C[C@H]1O [FF-55, (20S)-23,23-difluoro-1α-hydroxy-2-methylene-19-nor-bishomopregnacalciferol]		3			0.05	bound almost equally to the receptor	almost as potent as 1,25(OH)2D3	10	about the same transcriptional activity	did not result in mobilization of bone calcium	without any effect	very little bone calcium mobilization activity	does not promote intestinal calcium transport	significant intestinal calcium transport activity	very little activity

From patent US7718637B2, “(20S)-23,23-difluoro-methylene-19-nor-bishomopregnacalciferol-vitamin D analogs” (Wisconsin Alumni Research Foundation, priority 2007, dated 2010)
